Here are results for four compounds from patent publication US10993433B2, “Method of producing in vitro testicular constructs and uses thereof” (Wake Forest University Health Sciences, priority 2015, dated 2021).

As a reminder, the IC50 is the concentration needed to halve the response being measured.

Experiment [1] has as its system 2D cultured cells (SSC, Sertoli, Leydig at the same cell ratios and density of 3D organoids). In words: Drug toxicity test, CellTiter-Glo ATP viability, 2D cultured testicular cells. The note with it: 2D culture, 48 hours exposure, ATP content (CellTiter-Glo). Type of experiment: cell-based, human. Here is the method:
(§1) For toxicity testing, cisplatin and etoposide were purchased from Santa Cruz Biotechnology (Dallas, Tex.) and stock solutions of 5 mM and 25 mM were made in 0.9% NaCl and DMSO, respectively. Doxorubicin was purchased from Sigma-Aldrich, (St. Louis, Mo.) and a stock solution was produced in diH2O at a concentration of 10 mM. Busulfan (24 mM) was purchased from Otsuka Pharmaceutical (Tokyo, Japan) and was diluted into medium immediately prior to use. The undifferentiated (just after formation, 2 days in culture) and differentiated (23 days in culture) organoids, as well as 2D cultured cells (at the same cell ratios and density of 3D organoids), were treated for 48 hours in 6 different concentrations of each drug (0.01, 0.1, 1, 10, 100 and 1000 μM) in vitro. After 48 hours, CellTiter-Glo® Luminescent Cell Viability assays were performed (Promega) on all conditions. Briefly, culture plates were removed from the incubator and equilibrated to room temperature for 30 minutes. To each well of the 96-well culture plate, 100 μl of CellTiter-Glo® reagent was added at a 1:1 ratio and plates were moved to an orbital shaker for 5 minutes to induce cell lysis. Plates were incubated at room temperature for 10 minutes to stabilize luminescent signal and read on a Veritas™ luminometer. Integration times of 1 second were used for all samples. All conditions were performed in triplicate and medium only control wells were read and subsequently used for background subtraction. IC50 values were determined using GraphPad Prism® 6 calculated via 4-parameter fit with a 95% confidence interval. All experimental conditions were repeated at least three times.
(§2) The use of human testicular organoids as a novel screening tool for reproductive toxicity was assess by exposing 3D organoids to four clinically relevant antimitotic chemotherapeutic drugs: busulfan, cisplatin, doxorubicin, and etoposide. To obtain IC50 values, undifferentiated (2 days in culture) and differentiated (23 days in culture) organoids were exposed to increasing concentrations of drugs for 48 hours. H&E staining as well as Live/Dead viability assays were performed on organoids following drug treatment (FIG. 7A and Figure B, respectively). Drug-treated organoids were harvested and further evaluated for toxicity by measuring ATP production (CellTiter-Glo®; Promega, Madison, Wis.). Resulting viability was then used to establish IC50 values for organoid cultures (FIG. 7C).
Background: In ATP-based viability assays light output follows the ATP content of the culture.

Experiment [2] relates to 3D human testicular organoids. In words: Drug toxicity test, CellTiter-Glo ATP viability, 3D testicular organoids. Format: cell-based. The note with it: 48 hours exposure, ATP content. As to the method: Isolated human SSC, immortalized Sertoli cells, and immortalized Leydig cells at passage 5-6 were propagated in normal 6-well tissue culture plates to 80-90% confluency and passaged using trypsin EDTA (0.25%). Counted cells were pelleted and resuspended in a testicular organoid formation medium composed of normal StemPro®-34 (Invitrogen) SSC proliferation medium supplemented with 30% FBS, 1 μg/mL solubilized human testis extracellular matrix extract and 50 μg/mL Gentamycin. All three cell suspensions were combined together at a ratio of 8:1:1 and seeded into Perfecta3D® 96-well hanging drop plates (3D Biomatrix, Ann Arbor, Mich.) or GravityPLUS™ 96-well hanging drop plates (InSphero, Schlieren, Switzerland) at a density of 10,000 cells/40 μl drop volume. Following 48-72 hours of hanging drop culture, all testicular cell subtypes had amalgamated into compact organoids and were transferred into 96-well format Corning® Costar® Ultra-low Attachment Multiwell U-bottom plates for long term culture (Sigma-Aldrich, St. Louis, Mo.). For long-term study, all testicular organoids were cultured inn normal StemPro®-34 SSC proliferation medium without human leukemia inhibitory factor (LIF) and supplemented with 1 μg/mL solubilized human testis extracellular matrix extract, 2 μM retinoic acid (Sigma-Aldrich), 2.5×10^−5 IU follicle-stimulating hormone (Sigma-Aldrich), 100 ng/mL recombinant human stem cell factor (SCF; PeproTech, Rocky Hill, N.J.), and 50 μg/mL Gentamycin. Culture medium was refreshed every 4 days. All testicular organoids were cultured at 34° C. and 5% CO2.
as §1
as §2, with “Resulting viability was then used to establish IC50 values for organoid cultures (FIG. 7C).” left out

The mark [3] stands for this setting: Homo sapiens, differentiated organoids (23 days in culture), read-out: 3D IC50 Differentiated Organoids.
The mark [4] stands for this setting: Homo sapiens, undifferentiated organoids (2 days in culture), read-out: 3D IC50 Undifferentiated Organoids.

Read-outs that look alike come from different tables or passages of the source.

As for `CS(=O)(=O)OCCCCOS(C)(=O)=O` [Busulfan], the IC50 in experiment [1] (Homo sapiens, Leydig) is 328 µM; in experiment [2] (setting [3]) it was 906 µM; in experiment [2] (setting [4]), 830 µM.

For `N.N.[Cl][Pt][Cl]` [Cisplatin], the 50% inhibitory concentration (IC50) in experiment [1] worked out at 23.8 µM; in experiment [2] (differentiated organoids (23 days in culture), read-out: 3D IC50 Differentiated Organoids), 158 µM; in experiment [2] (undifferentiated organoids (2 days in culture), read-out: 3D IC50 Undifferentiated Organoids), 38.4 µM.

Regarding `COc1cccc2c1C(=O)c1c(O)c3c(c(O)c1C2=O)C[C@@](O)(C(=O)CO)C[C@@H]3O[C@H]1C[C@H](N)[C@H](O)[C@H](C)O1` [Doxorubicin], the IC50 in experiment [1] (Homo sapiens, Leydig) was 0.19 µM; in experiment [2] (setting [3]) it was 2.76 µM; in experiment [2] (setting [4]) it was 1.33 µM.

For `COc1cc([C@@H]2c3cc4c(cc3[C@@H](O[C@@H]3O[C@@H]5CO[C@@H](C)O[C@H]5[C@H](O)[C@H]3O)[C@H]3COC(=O)[C@H]23)OCO4)cc(OC)c1O` [Etoposide], the 50% inhibitory concentration (IC50) in experiment [1] (Homo sapiens, Leydig) amounted to 43.5 µM; in experiment [2] (setting [3]) it was 839 µM; in experiment [2] (setting [4]), 449 µM.
